Measured values from PubChem BioAssay AID200 (DTP/NCI, 2004).
Several values for one entry are separate records, joined by “and”; a condition that tells them apart may be missing. Identical values can stand only once. Toxic doses and inconclusive results are not listed. *1 amine or outer side, *2 acyl side, *3 side chain or, on linkers, in order; H or OH if unused. Where a SMILES comes first, the peptide text is derived from it. [ ]: non-standard residue; d: D form. The star is where a group is joined. X3 = CCC(=O)CC1CC(C)CC(C(=O)[*:2])N1[*:1]; X2 = CCCCCCCCC(C)C(=O)*; Aib = CC(C)(N)C(=O)O; X4 = CC(CN(C)CCO)N*

Test system: B6C3F1 mice, B16 melanoma ip, median survival T/C
Test: NCI In Vivo Anticancer Drug Screen. Data for tumor model B16 Melanoma (intraperitoneal) in B6C3F1 mice
Conditions: endpoint: median survival time, schedule: Q01DX009 (ip), higher = longer survival
Description: The antitumor activity of compounds was measured in mice bearing transplantable tumors. Survival or tumor size were measured and the results are expressed as the measurement made in the treated group (T) divided by the measurement made in the vehicle treated control group (C). The tumor model used in this assay is B16 Melanoma (intraperitoneal) in B6C3F1 mice

[1] = dose: 12.5 mg/kg/injection, vehicle: saline with Tween-80
[2] = dose: 25.0 mg/kg/injection, vehicle: saline with Tween-80
[3] = dose: 100.0 mg/kg/injection, vehicle: saline with Tween-80
[4] = dose: 200.0 mg/kg/injection, vehicle: saline with Tween-80
[5] = dose: 3.12 mg/kg/injection, vehicle: saline with Tween-80
[6] = dose: 50.0 mg/kg/injection, vehicle: saline with Tween-80
[7] = dose: 400.0 mg/kg/injection, vehicle: saline with Tween-80
[8] = dose: 1.25 mg/kg/injection, vehicle: Klucel (hydroxypropylcellulose) (HPC)
[9] = dose: 2.5 mg/kg/injection, vehicle: Klucel (hydroxypropylcellulose) (HPC)
[10] = dose: 5.0 mg/kg/injection, vehicle: Klucel (hydroxypropylcellulose) (HPC)
[11] = dose: 6.25 mg/kg/injection, vehicle: saline with Tween-80
[12] = dose: 100.0 mg/kg/injection, vehicle: Klucel (hydroxypropylcellulose) (HPC)

c1ccc(OCC2CO2)c(OCC2CO2)c1 (stereo not given) was tested, and the T/C [1] was 108 % of control, the T/C [2] was 109 % of control and 114 % of control and 118 % of control and the T/C [3] was 150 % of control and 171 % of control. The T/C [4] was 219 % of control.

For O=c1nc(Oc2ccccc2)nc2ncccn12, the T/C [5] was 108 % of control and 101 % of control and 102 % of control.

For CN=C(N)N/N=C(\C)c1ccc2sc3ccc(/C(C)=N/NC(N)=NC)cc3c2c1, the T/C [2] was 108 % of control, the T/C [6] was 113 % of control and the T/C [3] was 120 % of control. For the same compound, the T/C [4] was 119 % of control and the T/C [7] was 95 % of control.

O=c1cc(-c2ccc3ccccc3n2)oc2ccc(Cl)cc12 was tested, and the T/C (dose: 10.0 mg/kg/injection, vehicle: saline with Tween-80) was 99 % of control, the T/C (dose: 20.0 mg/kg/injection, vehicle: saline with Tween-80) was 101 % of control and the T/C (dose: 40.0 mg/kg/injection, vehicle: saline with Tween-80) was 95 % of control.

CCCCCCCC1C(=O)OC2CC3C(C)=CC(=O)C(O)C3(C)C3C4(O)OCC23C1C(C)C4O (stereo not given) was tested, and the T/C [8] was 156 % of control, the T/C [9] was 110 % of control and 91 % of control and the T/C [10] was 118 % of control and 97 % of control. For the same compound, the T/C (dose: 10.0 mg/kg/injection, vehicle: Klucel (hydroxypropylcellulose) (HPC)) was 114 % of control and 250 % of control and the T/C (dose: 20.0 mg/kg/injection, vehicle: Klucel (hydroxypropylcellulose) (HPC)) was 162 % of control.

CCCCCCCCC(C)C(=O)N1CCCC1C(=O)N1C(CC(=O)CC)CC(C)CC1C(=O)NC(C)C(=O)NC(C)(C)C(=O)NC(C)(C)C(=O)NC(C(=O)NC(C)C(=O)NC(C)(C)C(=O)NC(C)(C)C(=O)NC(C)CN(C)CCO)C(C)CC (stereo not given) (X2-P[X3]A[Aib][Aib]IA[Aib][Aib]-X4; configuration not given here) was tested, and the T/C (dose: 0.15 mg/kg/injection, vehicle: Klucel (hydroxypropylcellulose) (HPC)) was 98 % of control, the T/C (dose: 0.31 mg/kg/injection, vehicle: Klucel (hydroxypropylcellulose) (HPC)) was 91 % of control and the T/C (dose: 0.62 mg/kg/injection, vehicle: Klucel (hydroxypropylcellulose) (HPC)) was 97 % of control. The T/C [8] was 89 % of control, the T/C [9] was 92 % of control and the T/C [10] was 86 % of control.

In the case of C=C1C(=O)OC2CC(C)C3C4OC4C(O)C3(C)C(O)C12 (stereo not given), the T/C (dose: 0.4 mg/kg/injection, vehicle: saline) is reported as 104 % of control, the T/C (dose: 0.8 mg/kg/injection, vehicle: saline) is reported as 110 % of control and the T/C (dose: 1.56 mg/kg/injection, vehicle: saline) is reported as 108 % of control. For the same compound, the T/C (dose: 3.13 mg/kg/injection, vehicle: saline) was 124 % of control.

COC(=O)[C@@]12OC[C@]34[C@H]([C@@H](O)[C@@H]1O)[C@@]1(C)CC(=O)C(O)=C(C)[C@@H]1C[C@H]3OC(=O)[C@H](OC(=O)/C=C(/C)C(C)(C)O)[C@@H]24 was tested, and the T/C (dose: 0.25 mg/kg/injection, vehicle: saline + alcohol) was 104 % of control, the T/C (dose: 0.5 mg/kg/injection, vehicle: saline + alcohol) was 110 % of control and 117 % of control and the T/C (dose: 1.0 mg/kg/injection, vehicle: saline + alcohol) was 119 % of control.

For Cc1cc(NCCCCCCNc2cc(C)nc3cc(N(C)C)ccc23)c2ccc(N(C)C)cc2n1, the T/C (dose: 3.13 mg/kg/injection, vehicle: distilled water + Tween-80 + alcohol) was 100 % of control, the T/C (dose: 6.25 mg/kg/injection, vehicle: distilled water + Tween-80 + alcohol) was 112 % of control and the T/C (dose: 12.5 mg/kg/injection, vehicle: distilled water + Tween-80 + alcohol) was 112 % of control and 122 % of control.

For C=CCNC(=O)c1ccccc1SC(C)=O, the T/C (dose: 50.0 mg/kg/injection, vehicle: saline + Tween-80 + alcohol) was 101 % of control, the T/C (dose: 100.0 mg/kg/injection, vehicle: saline + Tween-80 + alcohol) was 112 % of control and 103 % of control and the T/C [3] was 91 % of control. The T/C (dose: 200.0 mg/kg/injection, vehicle: saline + Tween-80 + alcohol) was 119 % of control, the T/C [4] was 104 % of control and the T/C (dose: 400.0 mg/kg/injection, vehicle: saline + Tween-80 + alcohol) was 114 % of control. For the same compound, the T/C [7] was 116 % of control.

O=C(NC(CSSCC(NC(=O)c1ccccc1)C(=O)O)C(=O)O)c1ccccc1 (stereo not given) was tested, and the T/C [6] was 109 % of control, the T/C [3] was 108 % of control and the T/C [4] was 106 % of control. For the same compound, the T/C [7] was 100 % of control.

With Nc1nc(N)c2c(Cl)c(CNc3ccc(Cl)c(Cl)c3)ccc2n1 the T/C [5] was 121 % of control, the T/C [11] was 106 % of control and the T/C [1] was 123 % of control.

For Cn1ccc(=Nc2ccc(NC(=O)c3ccc(N=c4ccn(C)c5ccc([N+](=O)[O-])cc45)cc3[N+](=O)[O-])cc2)cc1, the T/C [1] was 105 % of control, the T/C [2] was 93 % of control and the T/C [6] was 91 % of control. The T/C [3] was 94 % of control, the T/C [4] was 96 % of control and the T/C [7] was 96 % of control.

For CC(NC(=O)OCc1ccccc1)C(=O)NC(Cc1c[nH]c2ccccc12)C(=O)O (stereo not given), the T/C [12] was 95 % of control, the T/C (dose: 200.0 mg/kg/injection, vehicle: Klucel (hydroxypropylcellulose) (HPC)) was 100 % of control and the T/C (dose: 400.0 mg/kg/injection, vehicle: Klucel (hydroxypropylcellulose) (HPC)) was 89 % of control.

With CCCCNP1(NCCCC)=NP(NCCCC)(NCCCC)=NP(NCCCC)(NCCCC)=NP(NCCCC)(NCCCC)=N1 the T/C [11] was 111 % of control and 98 % of control, the T/C [1] was 115 % of control and 122 % of control and 101 % of control and the T/C [2] was 119 % of control and 104 % of control. The T/C [6] was 115 % of control.

In the case of CC1(c2ccc(Cl)cc2)OC(=O)C(=Cc2ccc([N+](=O)[O-])s2)C(=O)O1 (stereo not given), the T/C [11] is reported as 89 % of control, the T/C [1] is reported as 86 % of control and the T/C [2] is reported as 90 % of control. The T/C [6] was 89 % of control.

For CCOC(=O)C(N)CSC(=O)NC (stereo not given), the T/C (dose: 12.5 mg/kg/injection, vehicle: saline) was 103 % of control and 106 % of control, the T/C (dose: 25.0 mg/kg/injection, vehicle: saline) was 108 % of control and 92 % of control and the T/C (dose: 50.0 mg/kg/injection, vehicle: saline) was 103 % of control and 106 % of control. For the same compound, the T/C (dose: 100.0 mg/kg/injection, vehicle: saline) was 108 % of control and 93 % of control, the T/C (dose: 200.0 mg/kg/injection, vehicle: saline) was 109 % of control and the T/C (dose: 400.0 mg/kg/injection, vehicle: saline) was 124 % of control.

For S=C(S)N1CCCNCC1 (tested in a mixture with another compound), the T/C [1] was 107 % of control, the T/C [2] was 100 % of control and the T/C [6] was 92 % of control.

With O=C1C=CC(=Nc2ccc3c(c2)C(Br)c2ccccc2-3)O1 (stereo not given) the T/C (dose: 5.0 mg/kg/injection, vehicle: saline) was 92 % of control and the T/C (dose: 10.0 mg/kg/injection, vehicle: saline) was 87 % of control.

With Nc1ccc2ccc(NS(=O)(=O)N3CCCCC3)cc2c1 the T/C [2] was 110 % of control, the T/C [6] was 98 % of control and the T/C [3] was 111 % of control. The T/C [4] was 107 % of control.

With C[N+](C)=C1C=CC(=C2C=CSC=C2)C=C1 the T/C (dose: 3.0 mg/kg/injection, vehicle: saline) was 115 % of control and the T/C (dose: 6.25 mg/kg/injection, vehicle: saline) was 116 % of control.

In the case of O=C(CCCCCCC(=O)ON1C(=O)CCC1=O)ON1C(=O)CCC1=O, the T/C [2] is reported as 99 % of control, the T/C [6] is reported as 96 % of control and the T/C [3] is reported as 103 % of control.

NCCCCC(NC(=O)OCC1c2ccccc2-c2ccccc21)C(=O)O (stereo not given) was tested, and the T/C (dose: 25.0 mg/kg/injection, vehicle: Klucel (hydroxypropylcellulose) (HPC)) was 92 % of control, the T/C (dose: 50.0 mg/kg/injection, vehicle: Klucel (hydroxypropylcellulose) (HPC)) was 101 % of control and the T/C [12] was 97 % of control and 100 % of control.

In the case of NC(=O)c1ccc(N)nc1, the T/C (dose: 0.5 mg/kg/injection, vehicle: saline) is reported as 113 % of control, the T/C (dose: 1.0 mg/kg/injection, vehicle: saline) is reported as 119 % of control and the T/C (dose: 2.0 mg/kg/injection, vehicle: saline) is reported as 117 % of control.

In the case of COc1ccc(-c2cc(=O)c3ccc4c(O)cccc4c3o2)cc1, the T/C [5] is reported as 97 % of control, the T/C [11] is reported as 88 % of control and the T/C [2] is reported as 86 % of control. The T/C [6] was 93 % of control.
